The values that follow come from patent publication US20210268115A1 (priority 2020, published 2021).

The conditions of data set [1]: male, Sprague-Dawley, in vivo.
The conditions of data set [2]: male, Sprague-Dawley, rat, in vivo.
Data set [3] can be described thus: In vitro release of therapeutic agent from prodrugs in plasma supplemented with lipoprotein lipase. The note with it: free allopregnanolone (parent API) in dog plasma supplemented with LPL, 37° C. In kind it is in vitro ADME. How it is done: In order to probe the release of free drug from TG prodrugs in the systemic circulation, prodrugs are incubated with plasma (rat, dog, monkey, or human) supplemented with lipoprotein lipase (LPL, 200 IU/ml). LPL is a key enzyme required for the hydrolysis of lipoprotein associated TG in the systemic circulation and is therefore expected to be a key contributor to lipolysis of the re-esterified drug-TG construct in plasma, largely via liberation of fatty acids in the sn-1 and the sn-3 position of the TG-mimetic, prior to drug release from the 2′ position via esterase hydrolysis. LPL is active in plasma but is tethered to the luminal surface of vascular endothelial cells under physiological conditions. In the current in vitro studies, plasma is therefore supplemented with LPL to better reflect the in vivo situation.
To start hydrolysis, 10 μl of LPL solution (10,000 IU/ml) will be added to a mixture of 10 μl of prodrug solution (1 mg/ml dissolved in organic solvent, e.g., THF, DMSO, or acetonitrile) and 500 μl of blank plasma. The mixture will be incubated at 37° C. […] The supernatant will be analyzed by HPLC-MS/MS for the potential products (MG form, acid form, and free drug) of prodrug hydrolysis.
The in vitro hydrolysis profile of selected prodrug compounds will be determined in rat, dog, monkey and/or human plasma supplemented with LPL.

The conditions of data set [4]: cynomolgus monkey, in vivo; for Prodrug detectability in plasma after dose administration / Tmax: po; for Tmax: male, 8.8 umol/kg.

Where two headings read alike, the source gives them in different places.

With `CC(=O)[C@H]1CC[C@H]2[C@@H]3CC[C@H]4C[C@H](O)CC[C@]4(C)[C@H]3CC[C@]12C` [Allopregnanalone, 5α-pregnan-3α-ol-20-one], in data set [1], the “Rat - cumulative lymphatic transport: Mean, total lymphatic transport over 6 or 8 hours (%)” value was 0.1%.
Broadly, the Cmax is the maximum level reached in the sampled fluid or tissue. The term Tmax denotes the time from dosing to the highest level. For the molecule `CCC(=O)OCC(COC(=O)CC)OC(=O)C(C)CCCCCCCCC(C)C(=O)OCCCCC(=O)O[C@@H]1CC[C@@]2(C)[C@@H](CC[C@@H]3[C@@H]2CC[C@]2(C)[C@@H](C(C)=O)CC[C@@H]32)C1` (stereo partly shown) [Compound I-5, ALL-FSI5-C12a′aMe-2-TG], in data set [2] (2 mg/kg), the Cmax stood at 62.8 nM; the “Mean Plasma AUC, 0-24 h” value worked out at 0.0839 µM·h; the Tmax turned out to be 1.8 h.
For `CCC(=O)OCC(COC(=O)CC)OC(=O)C(C)CCCCCCCCC(C)C(=O)OC(C)OC(=O)O[C@@H]1CC[C@@]2(C)[C@@H](CC[C@@H]3[C@@H]2CC[C@]2(C)[C@@H](C(C)=O)CC[C@@H]32)C1` (stereo partly shown) [Compound I-6, ALL-CMSI-C12a′aMe-2-TG], in data set [2] (2 mg/kg), the Cmax was 239 nM; the “Mean Plasma AUC, 0-24 h” value was 0.3209 µM·h; the Tmax was 1 h.
`CCCCCCCCCCCCCCCC(=O)OCC(COC(=O)CCCCCCCCCCCCCCC)OC(=O)CC(C)CC(=O)OC(C)OC(=O)O[C@@H]1CC[C@@]2(C)[C@@H](CC[C@@H]3[C@@H]2CC[C@]2(C)[C@@H](C(C)=O)CC[C@@H]32)C1` (stereo partly shown) [Compound I-8, ALL-CMSI-C5bMe-2-TG]: the “Parent API present at end of experiment (%)” value in data set [3] is “B (≥20% and <60% release into plasma)”. Also, in data set [2] (2 mg/kg), the Cmax worked out at 241 nM; the “Mean Plasma AUC, 0-24 h” value came out at 0.3681 µM·h; the Tmax turned out to be 2.3 h.
Take `CCCCCCCC(=O)OCC(COC(=O)CCCCCCC)OC(=O)CC(C)CC(=O)OC(C)OC(=O)O[C@@H]1CC[C@@]2(C)[C@@H](CC[C@@H]3[C@@H]2CC[C@]2(C)[C@@H](C(C)=O)CC[C@@H]32)C1` (stereo partly shown) [Compound I-36, ALL-CMSI-C5bMe-2-TG-octanoate]: in data set [2] (po), the “Mean Plasma AUC, 0-24 h” value was 0.312 µM·h and the Tmax worked out at 1.2 h. In data set [4], the “Tolerability of oral administration” value is on record as “well-tolerated”, the “Prodrug detectability in plasma after dose administration” value is reported as “detectable in plasma samples after dose administration at all time-points” and the Tmax came to 4.0 h.
Take `CCCC(=O)OCC(COC(=O)CCC)OC(=O)CC(C)CC(=O)OC(C)OC(=O)O[C@@H]1CC[C@@]2(C)[C@@H](CC[C@@H]3[C@@H]2CC[C@]2(C)[C@@H](C(C)=O)CC[C@@H]32)C1` (stereo partly shown) [Compound I-37, ALL-CMSI-C5bMe-2-TG-butyrate]: in data set [2] (po), the peak level (Cmax) was 138 nM; the “Mean Plasma AUC, 0-24 h” value amounted to 0.191 µM·h; the Tmax was determined as 0.8 h.
Turning to `CC(=O)OCC(COC(C)=O)OC(=O)CC(C)CC(=O)OC(C)OC(=O)O[C@@H]1CC[C@@]2(C)[C@@H](CC[C@@H]3[C@@H]2CC[C@]2(C)[C@@H](C(C)=O)CC[C@@H]32)C1` (stereo partly shown) [Compound I-38, ALL-CMSI-C5bMe-2-TG-acetate], in data set [2] (po), the Cmax came out at 335 nM; the “Mean Plasma AUC, 0-24 h” value worked out at 0.45 µM·h; the Tmax was 1 h.
For `CCCCCCCC/C=C\CCCCCCCC(=O)OCC(COC(=O)CCCCCCC/C=C\CCCCCCCC)OC(=O)CCCCC(=O)OCO[C@@H]1CC[C@@]2(C)[C@@H](CC[C@@H]3[C@@H]2CC[C@]2(C)[C@@H](C(C)=O)CC[C@@H]32)C1` [Compound I-40, ALL-ASI-C6-2-TG-oleate], in data set [2] (2 mg/kg), the Cmax turned out to be 165 nM; the “Mean Plasma AUC, 0-24 h” value came to 0.265 µM·h; the Tmax amounted to 1.7 h.
For `CCCCCCCC/C=C\CCCCCCCC(=O)OCC(COC(=O)CCCCCCC/C=C\CCCCCCCC)OC(=O)CCCCCCC(=O)OCO[C@@H]1CC[C@@]2(C)[C@@H](CC[C@@H]3[C@@H]2CC[C@]2(C)[C@@H](C(C)=O)CC[C@@H]32)C1` [Compound I-41, ALL-ASI-C8-2-TG-oleate], in that order: 129 nM, 0.211 µM·h and 1.7 h.
Taken in the same sequence, the figures for `CCCCCCCC/C=C\CCCCCCCC(=O)OCC(COC(=O)CCCCCCC/C=C\CCCCCCCC)OC(=O)CC(C)CCCCC(=O)OCO[C@@H]1CC[C@@]2(C)[C@@H](CC[C@@H]3[C@@H]2CC[C@]2(C)[C@@H](C(C)=O)CC[C@@H]32)C1` (stereo partly shown) [Compound I-42, ALL-ASI-C8bMe-2-TG-oleate] were 334 nM, 0.47 µM·h and 1.5 h.
For the molecule `CCCCCCCC(=O)OCC(COC(=O)CCCCCCC)OC(=O)CC(C)CC(=O)OCOC(=O)O[C@@H]1CC[C@@]2(C)[C@@H](CC[C@@H]3[C@@H]2CC[C@]2(C)[C@@H](C(C)=O)CC[C@@H]32)C1` (stereo partly shown) [Compound I-47, ALL-CASI-C5bMe-2-TG-octanoate], in data set [4], the “Tolerability of oral administration” value is on record as “well-tolerated”, the “Prodrug detectability in plasma after dose administration” value is “detectable in plasma samples after dose administration at all time-points” and the Tmax turned out to be 4.0 h.
For the molecule `CCCCCCCC/C=C\CCCCCCCC(=O)OCC(COC(=O)CCCCCCC/C=C\CCCCCCCC)OC(=O)CCCCC(C)CC(=O)OCOC(=O)O[C@@H]1CC[C@@]2(C)[C@@H](CC[C@@H]3[C@@H]2CC[C@]2(C)[C@@H](C(C)=O)CC[C@@H]32)C1` (stereo partly shown) [Compound I-49, ALL-CASI-C8b′Me-2-TG-oleate], in data set [2] (2 mg/kg), the Cmax is 370 nM; the “Mean Plasma AUC, 0-24 h” value was 0.513 µM·h; the Tmax is listed as 1.7 h.
